Results from US6159940A, “Method for modulating hemopoiesis” (Immunotech Developments Inc., priority 1999, dated 2000).

Tests used:
[1] = Observation during study of specific and general pharmacological activity; format: in vivo, mice, guinea pigs, rats, rabbits; conditions: during the study and 1-6 month observation period
Protocol: In the study of specific and general pharmacological activity, the test animals were mice, guinea pigs, rats, rabbits. Some tests were performed using lymphocyte or monocyte cultures of the peritheric blood of donors and patients with different diseases accompanied by immunity disorders.

tumor cells EL-4 = assay: Thymoma EL-4 cells incubated with peptide and heated, transplanted to mice: tumor size; format: in vivo, C57B1 mice; conditions: for Tumor size: EL-4, 13th day
Protocol: Incubation of the tumor cells with the tested drugs were performed the same way as described above in the experiments with OU. After 18-hour incubation, the cells were washed in the medium RPMI, and then resuspended in the concentration of 5 ml/1 ml in plastic test tubes of total volume of 2 ml each. Then the cells were heated for 1 hour at 43 degrees Celsius, and transplanted under the back skin of the mice C57B1. The growth of the tumor was examined the same way as described above.

[2] = Clinical study: tolerance, biochemical indices, humoral status; format: in vivo, patients
Source text: The clinical study of H-Ile-Glu-Trp-OH was continued in groups of patients with pronounced secondary pathological changes in their immune system. The primary task of the first stage of the investigation was to observe the preparation tolerance, to reveal toxic, allergic and other reactions, hemogram dynamics and biochemical indices. Further investigation, along with further monitoring of the major clinical and laboratory parameters, included evaluation of the immunological status of a patient before and after the immunopeptide treatment.
Before instituting the treatment, examination was carried out including case history, clinical, laboratory and instrumental investigations. Necessary morphological investigations were performed to verify the diagnosis. There were also the results of hemogram dynamics before and after each treatment course of H-Ile-Glu-Trp-OH. After these courses the biochemical indices and urine tests were examined again. X-ray, ultrasonic and morphological examinations were repeated on indication.
Humoral immunity was also investigated: the content of different types of immunoglobulins, protein fractions, antibodies to thyroid, and the Coombs test (the latter was performed in the case of haemolytic anaemia).
One ml daily, intranasally, once or twice in divided doses, for 5 days. The course was repeated after a 3-week interval. To those patients who received a cytostatic mono- or polychemotherapy, H-Ile-Glu-Trp-OH was administered from the first day of the break in the cytostatic treatment.

[3] = Chronic toxicity: peritheric blood and internals, 30 days, guinea pigs; format: in vivo; conditions: once daily for 30 days
Protocol: II.1 The H-Ile-Glu-Trp-OH effect on the composition and properties of the peritheric blood, the morphological state of the internals.
The drug was injected once daily for 30 days.
The test animals were 20 rabbits and 40 guinea pigs.

[4] = tested on: karyocytes in femoral bone marrow; assay: Bone marrow regeneration in irradiated mice (4 Gy), scheme 2; format: in vivo
Protocol: Irradiated mice (4 Gy) received intramuscular injections of the peptide in the dose of 10 μg/kg according to 2 schemes.
b) According to scheme 2, the peptide injections were made starting from the 3rd day after the irradiation, at the same time of maximum depletion of the pool of mature nucleated cells and the bone marrow. The groups of mice were formed in the same way as in the previous scheme. […] Tables 9 and 10 present the data on karyocyte and lymphocyte counts in blood (per 1 mm^3) of mice treated according to scheme 2.
The data in Table 11 reflect the process of bone marrow regeneration in control and test irradiated (4 Gy) mice treated with peptide according to scheme 2. The regeneration was equally intensive in all animal groups till the 11th day, from day 14 to day 18 the nucleated cells counts were considerably higher in the bone marrow of test mice.

T-cell = T-cell count in spleen, spontaneous rosette formation with sheep erythrocytes (E-FRC); format: in vivo, (CBA×C57BL)F1 mice
Protocol: Females and male (CBA×C57BL)F1 mice, aged about 2.5 months weighing about 20 g, were irradiated with gamma-rays using a "Luch-1" apparatus. Immunological activity was assessed according to Jerne (Antibody Forming Cells count--AFC). T-cell count in spleen was determined by the method of spontaneous rosette formation with sheep erythrocytes (E-FRC). The peptide was injected intramuscularly.
Mice were irradiated in a dose of 2 Gy, the peptide was injected in the dose of 10 μg/kg according to the following scheme (to determine T-cell count by the method of spontaneous rosette formation): 1 time--an hour after the irradiation; 2 times--an hour, and a day after irradiation; 3 times--an hour, a day, and two days after the irradiation; 4 times--an hour, a day, two days and three days after the irradiation. The intact mice recieved the peptide 3 or 4 times. The control group (2 Gy) recieved injections of physiological solution according to the same schedule. On completion of the treatment course, 10 mice from each group were immunized with sheep erythrocytes (SE) and 4-5 days later AFC counts were determined in their spleens. The rest of the mice were used to find T-cell count by the method of spontaneous rosette formation. The state of the organs of immune system (spleen and thymus) in mice with radiation immunodeficiency against the background of H-Ile-Glu-Trp-OH treatment was also listed by nucleated cell counts in thymus and spleen per mg of organ weight. AFC/mg Spleen weight is presented as an average of two experiments.

Effect on liver function = format: in vivo, rabbits; conditions: 0.01% solution for 30 days
Protocol: The tests were performed in 20 rabbits, who received injections of 0.01% H-Ile-Glu-Trp-OH solution for 30 days.

H-Ile-Glu-Trp-OH
toxic or allergic reactions [1]: no toxic or allergic reactions were observed
Tumor size (tumor cells EL-4; + Heating (1 hour at 43 degrees Celsius)): No Tumor
Tumor size (tumor cells EL-4; no heating): 188.7 mm squared
tumor formation (tumor cells EL-4; in vitro treatment followed by heating, 21st day): no tumor formation was observed
protein fractions and immunoglobulins in patients' sera ([2]; 1-1.5 months after the treatment): No dynamics of these indices was found
dynamics of biochemical indices ([2]; before and after 1-3 treatment courses): revealed no changes
AP dynamics and ECG ([2]; human, in vivo): failed to reveal any changes
adverse reactions ([2]; prolonged administration (5-6 courses), intranasally): no toxic reactions
pathologic changes in the body or peritheric blood [3]: did not cause any pathologic changes
Karyocyte Count in Femoral Bone Marrow ([4]; scheme 2, 1 Time, Day 7): 16.4 ± 0.3 × 10^6
Karyocyte Count in Femoral Bone Marrow ([4]; scheme 2, 1 Time, Day 11): 17.9 ± 1.8 × 10^6
Karyocyte Count in Femoral Bone Marrow ([4]; scheme 2, 1 Time, Day 14): 18.7 ± 1.1 × 10^6
Karyocyte Count in Femoral Bone Marrow ([4]; scheme 2, 1 Time, Day 18): 18.0 ± 0.4 × 10^6
Karyocyte Count in Femoral Bone Marrow ([4]; scheme 2, 1 Time, Day 21): 22.4 ± 2.2 × 10^6
Karyocyte Count in Femoral Bone Marrow ([4]; scheme 2, 2 Times, Day 7): 14.9 ± 1.7 × 10^6
Karyocyte Count in Femoral Bone Marrow ([4]; scheme 2, 2 Times, Day 11): 18.6 ± 2.3 × 10^6
Karyocyte Count in Femoral Bone Marrow ([4]; scheme 2, 2 Times, Day 14): 14.1 ± 1.7 × 10^6
Karyocyte Count in Femoral Bone Marrow ([4]; scheme 2, 2 Times, Day 18): 17.2 ± 1.0 × 10^6
Karyocyte Count in Femoral Bone Marrow ([4]; scheme 2, 2 Times, Day 21): 18.9 ± 0.6 × 10^6
Karyocyte Count in Femoral Bone Marrow ([4]; scheme 2, 3 Times, Day 7): 12.25 ± 1.3 × 10^6
Karyocyte Count in Femoral Bone Marrow ([4]; scheme 2, 3 Times, Day 11): 18.5 ± 2.9 × 10^6
Karyocyte Count in Femoral Bone Marrow ([4]; scheme 2, 3 Times, Day 14): 16.9 ± 0.8 × 10^6
Karyocyte Count in Femoral Bone Marrow ([4]; scheme 2, 3 Times, Day 18): 16.9 ± 0.8 × 10^6
Karyocyte Count in Femoral Bone Marrow ([4]; scheme 2, 3 Times, Day 21): 19.5 ± 1.6 × 10^6
Karyocyte Count in Femoral Bone Marrow ([4]; scheme 2, 4 Times, Day 11): 20.3 ± 1.3 × 10^6
Karyocyte Count in Femoral Bone Marrow ([4]; scheme 2, 4 Times, Day 14): 18.9 ± 0.2 × 10^6
Karyocyte Count in Femoral Bone Marrow ([4]; scheme 2, 4 Times, Day 18): 17.7 ± 1.2 × 10^6
Karyocyte Count in Femoral Bone Marrow ([4]; scheme 2, 4 Times, Day 21): 20.0 ± 1.8 × 10^6
T-Cell Count, column 1 (T-cell; 2 Gy, 1 Injection): 34.5 ± 1.7 10^3 /mg Spleen
T-Cell Count, column 1 (T-cell; 2 Gy, 2 Injection): 35.6 ± 1.8 10^3 /mg Spleen
T-Cell Count, column 1 (T-cell; 2 Gy, 3 Injection): 45.3 ± 3.4 10^3 /mg Spleen
T-Cell Count, column 2 (T-cell; 2 Gy, 3 Injection): 23.2 ± 3.7 10^3 /mg Spleen
T-Cell Count, column 1 (T-cell; 2 Gy, 4 Injection): 48.4 ± 2.5 10^3 /mg Spleen
T-Cell Count, column 2 (T-cell; 2 Gy, 4 Injection): 13.0 ± 0.8 10^3 /mg Spleen
T-Cell Count, column 2 (T-cell; intact mice, 3 Injections): 12.7 ± 1.5 10^3 /mg Spleen
T-Cell Count, column 2 (T-cell; intact mice, 4 Injections): 18.7 ± 5.8 10^3 /mg Spleen
liver function (Effect on liver function): not to have any toxic effect on the liver function
